According to ChEMBL document CHEMBL1201862, “PubChem BioAssay data set” (2004):
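Dose response: 5 concentrations. Exposure: 48 h. Format: 96-well plates. Endpoint: linear interpolation; highest concentration if not reached. The concentration for 50% growth inhibition is given as GI50.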 The source made the active and inactive calls. No stated cut-off is given here; in the data, active = GI50 up to about 1.1 µM and inactive = higher.

Columns and labels:
Assay in all cases: NCI anticancer screen, dose series, 48 h
IGROV-1 = tested on: IGROV-1
COLO 205 = tested on: COLO 205
DMS-114 = tested on: DMS-114
RPMI-8226 = tested on: RPMI-8226
M14 = tested on: M14
ACHN = tested on: ACHN
NCI-H460 = tested on: NCI-H460
UO-31 = tested on: UO-31
SK-OV-3 = tested on: SK-OV-3
HCT-116 = tested on: HCT-116
NCI-H23 = tested on: NCI-H23
DMS-273 = tested on: DMS-273
SN12C = tested on: SN12C
HCC 2998 = tested on: HCC 2998
OVCAR-8 = tested on: OVCAR-8
CCRF-CEM = tested on: CCRF-CEM
KM12 = tested on: KM12
HT-29 = tested on: HT-29
Malme-3M = tested on: Malme-3M
786-0 = tested on: 786-0
SNB-75 = tested on: SNB-75
U-251 = tested on: U-251
A498 = tested on: A498
HL-60 = tested on: HL-60
TK-10 = tested on: TK-10
OVCAR-5 = tested on: OVCAR-5
DLD-1 = tested on: DLD-1
SNB-78 = tested on: SNB-78
EKVX = tested on: EKVX
SK-MEL-2 = tested on: SK-MEL-2
K562 = tested on: K562
SF-268 = tested on: SF-268
A549 = tested on: A549
OVCAR-4 = tested on: OVCAR-4
MOLT-4 = tested on: MOLT-4
LXFL 529 = tested on: LXFL 529
HCT-15 = tested on: HCT-15
M19-MEL = tested on: M19-MEL
XF498 = tested on: XF498
HOP-92 = tested on: HOP-92
SK-MEL-28 = tested on: SK-MEL-28
UACC-257 = tested on: UACC-257
HOP-18 = tested on: HOP-18
SF-539 = tested on: SF-539
SK-MEL-5 = tested on: SK-MEL-5
OVCAR-3 = tested on: OVCAR-3
SF-295 = tested on: SF-295
CAKI-1 = tested on: CAKI-1
KM-20L2 = tested on: KM-20L2
HOP-62 = tested on: HOP-62
NCI-H226 = tested on: NCI-H226
LOX IMVI = tested on: LOX IMVI
NCI-H522 = tested on: NCI-H522
SNB-19 = tested on: SNB-19
SW-620 = tested on: SW-620
RXF 393 = tested on: RXF 393
SR = tested on: SR
UACC-62 = tested on: UACC-62

CC1(O)CC2C(CC1SCCO)C2(C)C (stereo not drawn)
GI50 (IGROV-1): > 100 µM (inactive)
GI50 (COLO 205): > 100 µM (inactive)
GI50 (DMS-114): > 100 µM (inactive)
GI50 (RPMI-8226): > 100 µM (inactive)
GI50 (M14): > 100 µM (inactive)
GI50 (ACHN): > 100 µM (inactive)
GI50 (NCI-H460): > 100 µM (inactive)
GI50 (UO-31): > 100 µM (inactive)
GI50 (SK-OV-3): > 100 µM (inactive)
GI50 (HCT-116): > 100 µM (inactive)
GI50 (NCI-H23): > 100 µM (inactive)
GI50 (DMS-273): > 100 µM (inactive)
GI50 (SN12C): > 100 µM (inactive)
GI50 (HCC 2998): > 100 µM (inactive)
GI50 (OVCAR-8): > 100 µM (inactive)
GI50 (CCRF-CEM): > 100 µM (inactive)
GI50 (KM12): > 100 µM (inactive)
GI50 (HT-29): > 100 µM (inactive)
GI50 (Malme-3M): > 100 µM (inactive)
GI50 (786-0): > 100 µM (inactive)
GI50 (SNB-75): > 100 µM (inactive)
GI50 (U-251): > 100 µM (inactive)
GI50 (A498): > 100 µM (inactive)
GI50 (HL-60): > 100 µM (inactive)
GI50 (TK-10): > 100 µM (inactive)
GI50 (OVCAR-5): > 100 µM (inactive)
GI50 (DLD-1): > 100 µM (inactive)
GI50 (SNB-78): > 100 µM (inactive)
GI50 (EKVX): > 100 µM (inactive)
GI50 (SK-MEL-2): > 100 µM (inactive)
GI50 (K562): > 100 µM (inactive)
GI50 (SF-268): > 100 µM (inactive)
GI50 (A549): > 100 µM (inactive)
GI50 (OVCAR-4): > 100 µM (inactive)
GI50 (MOLT-4): > 100 µM (inactive)
GI50 (LXFL 529): > 100 µM (inactive)
GI50 (HCT-15): > 100 µM
GI50 (M19-MEL): > 100 µM (inactive)
GI50 (XF498): > 100 µM (inactive)
GI50 (HOP-92): > 100 µM (inactive)
GI50 (SK-MEL-28): > 100 µM (inactive)
GI50 (UACC-257): > 100 µM (inactive)
GI50 (HOP-18): > 100 µM (inactive)
GI50 (SF-539): > 100 µM (inactive)
GI50 (SK-MEL-5): > 100 µM (inactive)
GI50 (OVCAR-3): > 100 µM (inactive)
GI50 (SF-295): > 100 µM (inactive)

O=C(CC1(O)C(=O)Nc2c(Cl)cc(Cl)cc21)c1ccco1 (stereo not drawn)
GI50 (COLO 205): > 100 µM (inactive)
GI50 (DMS-114): 22.8 µM (inactive)
GI50 (RPMI-8226): 23.1 µM (inactive)
GI50 (M14): 54 µM (inactive)
GI50 (ACHN): 83.6 µM (inactive)
GI50 (CAKI-1): 45 µM (inactive)
GI50 (NCI-H460): 65.6 µM (inactive)
GI50 (UO-31): 98.2 µM (inactive)
GI50 (SK-OV-3): > 100 µM (inactive)
GI50 (KM-20L2): 48.3 µM (inactive)
GI50 (NCI-H23): 56.1 µM (inactive)
GI50 (HOP-62): 60.1 µM (inactive)
GI50 (NCI-H226): 23.3 µM (inactive)
GI50 (DMS-273): 38.8 µM (inactive)
GI50 (SN12C): 63.8 µM (inactive)
GI50 (HCC 2998): 48.8 µM (inactive)
GI50 (OVCAR-8): 37.4 µM (inactive)
GI50 (CCRF-CEM): 24.3 µM (inactive)
GI50 (KM12): 32.7 µM (inactive)
GI50 (HT-29): 52.7 µM (inactive)
GI50 (Malme-3M): > 100 µM (inactive)
GI50 (786-0): 23.7 µM (inactive)
GI50 (LOX IMVI): 33.1 µM (inactive)
GI50 (SNB-75): 29 µM (inactive)
GI50 (U-251): > 100 µM (inactive)
GI50 (NCI-H522): 62.5 µM (inactive)
GI50 (SNB-19): > 100 µM (inactive)
GI50 (HL-60): 20.8 µM (inactive)
GI50 (TK-10): 88.1 µM (inactive)
GI50 (OVCAR-5): > 100 µM (inactive)
GI50 (DLD-1): 49.3 µM (inactive)
GI50 (SNB-78): 26.9 µM (inactive)
GI50 (EKVX): 59.2 µM (inactive)
GI50 (SK-MEL-2): 60.7 µM (inactive)
GI50 (K562): 30.3 µM (inactive)
GI50 (SF-268): 50 µM (inactive)
GI50 (SW-620): 50.4 µM (inactive)
GI50 (A549): > 100 µM (inactive)
GI50 (OVCAR-4): 15.7 µM (inactive)
GI50 (MOLT-4): 15.4 µM (inactive)
GI50 (RXF 393): 78 µM (inactive)
GI50 (LXFL 529): 37.8 µM (inactive)
GI50 (HCT-15): 40.5 µM
GI50 (XF498): 25.1 µM (inactive)
GI50 (HOP-92): 36.6 µM (inactive)
GI50 (SK-MEL-28): > 100 µM (inactive)
GI50 (UACC-257): > 100 µM (inactive)
GI50 (HOP-18): 55.7 µM (inactive)
GI50 (SK-MEL-5): 77.6 µM (inactive)
GI50 (OVCAR-3): 21.2 µM (inactive)
GI50 (SF-295): 32 µM (inactive)

COc1ccc(/C=C(\C2=NC(=O)CS2)c2nc3ccccc3[nH]2)cc1
GI50 (IGROV-1): 52.1 µM (inactive)
GI50 (COLO 205): > 100 µM (inactive)
GI50 (DMS-114): 19.5 µM (inactive)
GI50 (RPMI-8226): > 100 µM (inactive)
GI50 (M14): 93.1 µM (inactive)
GI50 (ACHN): 37.6 µM (inactive)
GI50 (CAKI-1): > 100 µM (inactive)
GI50 (NCI-H460): 38.9 µM (inactive)
GI50 (UO-31): 32.7 µM (inactive)
GI50 (SK-OV-3): 15.8 µM (inactive)
GI50 (KM-20L2): 49 µM (inactive)
GI50 (HCT-116): 85.1 µM (inactive)
GI50 (NCI-H23): 69.7 µM (inactive)
GI50 (HOP-62): 32.1 µM (inactive)
GI50 (NCI-H226): 8.95 µM (inactive)
GI50 (DMS-273): > 100 µM (inactive)
GI50 (SN12C): 52.4 µM (inactive)
GI50 (HCC 2998): < 0.01 µM (active)
GI50 (OVCAR-8): 46.8 µM (inactive)
GI50 (CCRF-CEM): 39.4 µM (inactive)
GI50 (KM12): 35.2 µM (inactive)
GI50 (HT-29): > 100 µM (inactive)
GI50 (Malme-3M): 69.3 µM (inactive)
GI50 (SNB-75): 28.1 µM (inactive)
GI50 (U-251): 42.3 µM (inactive)
GI50 (A498): 75.9 µM (inactive)
GI50 (NCI-H522): 16.5 µM (inactive)
GI50 (SNB-19): > 100 µM (inactive)
GI50 (HL-60): > 100 µM (inactive)
GI50 (TK-10): > 100 µM (inactive)
GI50 (SR): > 100 µM (inactive)
GI50 (OVCAR-5): 41.8 µM (inactive)
GI50 (DLD-1): > 100 µM (inactive)
GI50 (SNB-78): 21.5 µM (inactive)
GI50 (EKVX): 38.4 µM (inactive)
GI50 (SK-MEL-2): 24 µM (inactive)
GI50 (K562): 78.2 µM (inactive)
GI50 (SF-268): > 100 µM (inactive)
GI50 (SW-620): > 100 µM (inactive)
GI50 (A549): > 100 µM (inactive)
GI50 (OVCAR-4): > 100 µM (inactive)
GI50 (MOLT-4): 54.8 µM (inactive)
GI50 (RXF 393): 3.13 µM (inactive)
GI50 (LXFL 529): 60.7 µM (inactive)
GI50 (HCT-15): 83.8 µM
GI50 (M19-MEL): 43.5 µM (inactive)
GI50 (XF498): 14.5 µM (inactive)
GI50 (HOP-92): 80.2 µM (inactive)
GI50 (SK-MEL-28): 87.9 µM (inactive)
GI50 (UACC-62): > 100 µM (inactive)
GI50 (UACC-257): 78 µM (inactive)
GI50 (SF-539): 4.6 µM (inactive)
GI50 (SK-MEL-5): 37.6 µM (inactive)
GI50 (OVCAR-3): 22 µM (inactive)
GI50 (SF-295): 37.2 µM (inactive)
